Results on four compounds are retold here after US11685766B2, “14-3-3 targeting peptides for cancer treatment” (Creighton University, priority 2019, dated 2023).

One test deals with SCC12B.2 cells. The class given is cell-based, human. The settings on record: 5-FU alone, concentration printed as 2004, FIG. 1D. On the procedure: Human skin cancer cell lines (SCC12B.2, SCC13, SRB12) were maintained in Dulbecco's modified Eagle's medium (DMEM) (Invitrogen, Carlsbad, Calif., USA) supplemented with 1% penicillin (10 000 U/ml)-streptomycin (10 000 μg/ml) (PenStrep) (Invitrogen) and 10% fetal bovine serum (Gemini Bio-Products, Sacramento, Calif., USA) at 37° C. and 5% CO2. Normal human epidermal keratinocytes (nHEK) (Thermo Scientific, Waltham, Mass., USA) isolated from neonatal foreskin were cultured in EpiLife medium (Invitrogen) supplemented with human keratinocyte growth supplement (Invitrogen) and 1% PenStrep (Invitrogen). Cells were transfected with control pcDNA or pcDNA3.1-HA-14-3-3ε (Addgene plasmid #48797; http://n2t.net/addgene:48797; RRID:Addgene_48797) using Lipofectamine/Plus reagents (Life Technologies, Carlsbad, Calif., USA) or with siRNA targeting 14-3-3ε (Dharmacon, Lafayette, Colo., USA), 14-3-3γ (Dharmacon), 14-3-3ζ, (Dharmacon), Survivin (Cell Signaling, Danvers, Mass., USA), Akt (Dharmacon) or control siRNA (Santa Cruz Biotechnology, Dallas, Tex., USA) using siQuest transfection reagents (Mirus Bio, Madison, Wis., USA) or treated with Akt inhibitor GSK690693 (Tocris Bioscience, Bristol, United Kingdom) or cell cycle inhibitor 5-Fluorouracil (5-FU) (Thermo Fisher) resuspended in DMSO.
To determine the half maximal inhibitory concentration (IC50) for ES1P2 in SCC12B.2 and nHEK cells, cells were plated in a 96-well plate at a density of 6×10^3 cells/well. Twenty-four hours after plating, cells were treated with increasing concentrations of ES1P2 (0-75 μM) in Opti MEM medium supplemented with reduced serum (Invitrogen) for 4 consecutive days. ES1P2 peptide was resuspended fresh, daily in 25 mM Tris buffer (pH 7.5). Neutral Red Cell Viability assays were performed, where absorbance was measured using a Cytation 5 multi-mode plate reader (BioTek). The experiment was repeated three separate times with 4 replicate wells per experiment to obtain an average IC50 value.
Carcinoma human cell lines (SCC12B.2 and SCC13) were maintained in Dulbecco's modified Eagle's medium (DMEM) (Invitrogen, Carlsbad, Calif., USA) supplemented with 1% penicillin (10 000 U/ml)-streptomycin (10 000 μg/ml) (PenStrep) (Invitrogen) and 10% fetal bovine serum (Gemini Bio-Products, Sacramento, Calif., USA) at 37° C. and 5% CO2. Primary normal human epidermal keratinocytes (nHEK) (Thermo Fisher Scientific, Waltham, Mass., USA) isolated from neonatal foreskin were maintained in EpiLife medium (Invitrogen) supplemented with human keratinocyte growth supplement (HKGS) and 1% PenStrep. nHEK cells were not passaged more than twice before experiments. Cells were treated with CDC25A inhibitor NSC663284 (Tocris Bioscience, Bristol, United Kingdom) suspended in DMSO, transfected with wild type CDC25A or control plasmid using Lipofectamine/Plus transfection reagents (Life Technologies, Carlsbad, Calif., USA) or transfected with siRNA targeting 14-3-3 ε or control siRNA (Santa Cruz Biotechnology, Dallas, Tex., USA) using siQuest transfection reagents (Mirus Bio, Madison, Wis., USA).
To determine the half maximal inhibitory concentration (IC50) for pS and pT in SCC12B.2 cells, cells were plated in a 96-well plate at a density of 6×10^3 cells/well. […] Neutral Red Cell Viability assays were performed, where absorbance was measured using a Cytation 5 multi-mode plate reader (BioTek). […]

The target in the next test is T1, 14-3-3ε protein (Homo sapiens, UniProt P62258).
T1 sequence (P62258 1-255): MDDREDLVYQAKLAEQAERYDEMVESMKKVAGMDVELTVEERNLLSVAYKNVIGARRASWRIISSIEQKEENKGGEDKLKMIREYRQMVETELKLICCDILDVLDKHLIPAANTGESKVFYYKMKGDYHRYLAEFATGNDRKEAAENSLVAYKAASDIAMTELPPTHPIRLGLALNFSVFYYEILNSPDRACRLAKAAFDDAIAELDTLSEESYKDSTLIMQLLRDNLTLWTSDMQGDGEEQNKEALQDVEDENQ
The test can be described thus: Differential scanning fluorimetry (DSF) binding. The settings on record: 7 μM 14-3-3ε, ΔTm vs peptide concentration, Hill fit; read-out: Kd, binding affinity to 14-3-3ε protein (DSF). On the procedure:
Differential scanning fluorimetry (DSF) experiments were performed using BioRad CFX384 Real-Time qPCR attached with C1000 Touch Thermo Cycler in the FRET channel. 7 μM subunits of 14-3-3ε protein, ten molar excess of Sypro Orange and 20 mM Tris-HCl, pH 7.4 assay buffer were used in all the melting experiments. Stock solution of peptides were prepared by dissolving 1 mg of lyophilized peptides in 20 mM Tris, pH 7.4 buffer and 0.1 μM to 200 μM dilution series were prepared. Protein melting experiments were performed both in the absence and the presence of increasing concentration of peptides. 15 μL of each samples (in triplicate) were put into each well of a 384-well white PCR plate and sealed with optical adhesive sealer (BioRad MSB-1001) and any air-bubble in the solutions were removed by spinning the plate vertically with PCR plate spinner (Labnet MPS 1000) at 1000 RPM for 3 minutes. The temperature was increased from 25° C. to 95° C. at a rate of 0.7° C. per minute. Melting temperatures of each well were determined using the CFX Maestro software version 2.0 by plotting the first derivative of fluorescence signal against temperature. All the measurements were performed in triplicate and the deviations of melting temperatures (ΔTm) presented for each samples were calculated relatively to three control samples (7 μM 14-3-3ε in the absence of the peptide). Binding constant (Kd) for each peptide was calculated by plotting ΔTm against peptide concentration and data points were fitted with Hill's equation using GraphPad 9.0 software.
Background: In DSF a fluorescence change marks the thermal transition of the protein.

Peptide text beside a SMILES is read from it.

As for `O=c1[nH]cc(F)c(=O)[nH]1` [5-FU, 5-Fluorouracil, reference compound], the SCC cells alive in the test with SCC12B.2 cells stood at 71.5 % alive.

In general, Kd refers to the constant that tells how readily two partners part at equilibrium. In the case of `CC(=O)N[C@@H](CCCNC(=N)N)C(=O)N[C@H](C(=O)N[C@@H](CCCCN)C(=O)N[C@@H](CO)C(=O)N[C@@H](CCCNC(=N)N)C(=O)N[C@H](C(=O)N[C@@H](Cc1ccc(O)cc1)C(=O)N[C@@H](C)C(=O)NCC(N)=O)[C@@H](C)OP(=O)(O)O)[C@@H](C)O` [Ac-Arg-Thr-Lys-Ser-Arg-Thr(PO3^2−)-Tyr-Ala-Gly-NH2] (HELM PEPTIDE1{[ac].R.T.K.S.R.[C[C@@H](OP(=O)(O)O)[C@H](N[*:1])C(=O)[*:2]].Y.A.G.[am]}$$$$V2.0), the Kd at 14-3-3ε protein came to 2.34 µM.

Consider `CC(=O)N[C@@H](CCC(N)=O)C(=O)N[C@@H](CCCNC(=N)N)C(=O)N[C@@H](Cc1ccccc1)C(=O)N[C@@H](CC(N)=O)C(=O)N[C@@H](COP(=O)(O)O)C(=O)N[C@@H](C)C(=O)N1CCC[C@H]1C(=O)N[C@@H](C)C(=O)N[C@@H](CCCNC(=N)N)C(N)=O` [Ac-Gln-Arg-Phe-Asn-Ser-(PO3^2−)-Ala-Pro-Ala-Arg-NH2] (HELM PEPTIDE1{[ac].Q.R.F.N.[O=C([C@H](COP(=O)(O)O)N[*:1])[*:2]].A.P.A.R.[am]}$$$$V2.0), for which the Kd on 14-3-3ε protein came out at 8.29 µM.

Regarding `CC(=O)N[C@@H](CCC(N)=O)C(=O)N[C@@H](CCCNC(=N)N)C(=O)N[C@@H](Cc1ccc(O)cc1)C(=O)N[C@@H](CC(N)=O)C(=O)N[C@@H](COP(=O)(O)O)C(=O)N[C@@H](C)C(=O)N1CCC[C@H]1C(=O)N[C@@H](C)C(=O)N[C@@H](CCCNC(=N)N)C(N)=O` [Ac-Gln-Arg-Tyr-Asn-Ser-(PO3^2−)-Ala-Pro-Ala-Arg-NH2] (HELM PEPTIDE1{[ac].Q.R.Y.N.[O=C([C@H](COP(=O)(O)O)N[*:1])[*:2]].A.P.A.R.[am]}$$$$V2.0), the Kd at 14-3-3ε protein was 9.34 µM.
